Measured values as given in article PMC8830681, “Circadian control of heparan sulfate levels times phagocytosis of amyloid beta aggregates” (PLoS Genetics, 2022).

Columns and labels:
[1] = test system: BMDMs from PER1^-/-/PER2^-/- knockout (KO) mice; assay: Phagocytosis assay of HiLyte 488 labeled Aβ42 in clock knockout macrophages; format: cell-based, mouse
Description: (Fig 1B and 1C, S1 Fig). The extended harmonic circadian oscillator model (ECHO version 4.1) was used to analyze the average of the three replicates from each timepoint and predicted that Aβ42 total cellular florescence, and therefore the phagocytosis of Aβ42, oscillated with a circadian period (~26 h, ECHO p-value = 1.61 x 10^−6). Additionally, when compared with PER2 levels extrapolated based on the lumicycle data of the macrophages sampled, we saw that total cellular fluorescence was highest after the zenith of PER2 levels (Fig 1B and 1C). The Aβ42 phagocytosis experiment was then repeated using PER1^-/-/PER2^-/- knockout (KO) mice to confirm the circadian influence of this relationship. BMDMs from the knockout mice were extracted, derived into naïve macrophages, and synchronized as described above. KO macrophages were treated with fluorescently labeled Aβ42 for 2 h, in triplicate, every 4 h for 24 h starting at PS16.
PER2::LUC C57BL/6J male mice 3–6 months of age bred from Jackson Labs stock strains (Accession # 006852) were used for all WT experiments and were euthanized using CO2 gas and cervical dislocation. […]
Average cellular pixel intensities were used as a proxy for of Aβ phagocytosis. At least 100 cells measured per time point were analyzed using the above-described software. […]

[2] = as a free peptide and when bound to HSPGs; cited from earlier work
Excerpt: In addition to binding Aβ42, HSPGs regulate the formation of Aβ42 plaques, with highly-sulfated HSPGs accumulating in the plaques. Aβ peptides exist in two forms (Aβ40 or Aβ42) based on the cleavage of the amyloid precursor protein (APP) by β- and γ-secretase. Previous studies show differential phagocytosis of Aβ42 and Aβ40, yet the key amino acids essential to binding are present in Aβ40 (Fig 6C) (13–16, HHQK). However, the anionic bridge between lysine 28 and […], which is broken by HSPGs to allow the formation of Aβ42 aggregates by rapidl ...

[3] = test system: bone-marrow derived macrophages (BMDMs) from Per2::Luc C57BL/6J mice; assay: Phagocytosis assay of HiLyte 488 labeled amyloid-beta by serum-shock synchronized macrophages (with or without heparinases); format: cell-based, mouse; conditions: ECHO v4.1 fit, average of 3 replicates, log10 mean cell fluorescence, 2 h uptake every 4 h PS16-PS40, WT Per2::Luc BMDMs
Excerpt: To do so, we modified a previously-employed BMDM phagocytosis assay (as BMDMs are both models for activated microglia and are known to migrate into the brain in late-stage AD), to use fluorescently labeled Aβ42 to determine if the phagocytosis of Aβ42 is controlled by the circadian clock. In brief, BMDMs were derived from bone marrow progenitor cells extracted from Per2::Luc C57BL/6J mice and differentiated with recombinant Macrophage Colony Stimulating Factor (M-CSF), with flow cytometry confirming complete differentiation into naïve peripheral macrophages. […] 16 h after synchronization, confluent dishes of these BMDMs were treated HiLyte 488 labeled Aβ42 (Anaspec), in triplicate, every 4 h over a 24 h circadian period. BMDMs treated with labeled Aβ42 were harvested two hours after Aβ42 treatment and fixed with formalin. Total cellular fluorescence levels were analyzed with fluorescent confocal microscopy and quantified using a custom cell measurement MATLAB script (Fig 1A, S2 Fig, and S1 Table).
Bone marrow was harvested from the femurs and tibias of one 3–6-month-old male mouse using a 26 g needle and syringe filled with DMEM supplemented media. ACK lysing buffer (Lonza 10-548E) was used to lyse red blood cells in order to prevent erythrocyte contamination. Filtered bone marrow cells were counted using a BioRad TC20 automated cell counter and plated on 35 mm cell culture plates at a density of 1 x 10^6 in macrophage differentiation media. After three days of incubation at 37°C with 5% CO2, fresh macrophage differentiation media was added. After another 3 days of incubation, the cells were washed with 2 ml warm PBS per plate, and replaced with macrophage assay media, and the cultures were incubated for 24 h. Macrophage cultures were then washed with 2 ml warm PBS, macrophage serum starvation media was added, and the plates were incubated in the starve media for 24 h. Next, macrophage serum starvation media was removed, and macrophage serum shock media was added, and cultures were incubated for 2 h. Macrophage cultures were then washed with 2 ml warmed PBS each and macrophage media Luciferin was added. Cultures were sealed with grease and glass cover slips and placed in a LumiCycle 32 luminometer (Actimetrics) to confirm synchronization of circadian rhythmicity. Assays began 16 h post serum shock to allow the synchronized cells to return to homeostasis.
All amyloid-beta isoforms were reconstituted 24 h or less before experimentation in water and PBS (1:1) and were dissolved using sonication for approximately 30 min. The reconstituted Aβ was pooled from individual vials before aliquoting for each experimental replicate. The aliquots were then flash frozen and stored at -80°C until 20 min before use.
Using synchronized macrophages (as described above) starting at PS16 macrophages were treated every 4 h for 24 h, in triplicate, with 115 μl (0.25 mg/ml) of fluorescently labeled amyloid-beta (PS16, PS20, PS24, PS28, PS32, PS36, and PS40) and heparinases at the reported activity levels (S5 Table). The treated macrophages were then incubated at 37°C for 2 h. Following the two-hour incubation, the media was aspirated, and the macrophages were washed with 2ml of PBS three times before Cell Stripper (Corning 25-056-CI) was added to the cultures, which were then incubated at 37°C for 3 min. Detached macrophages were next centrifuged at 400 g for 5 min, the supernatant was aspirated, and the macrophage cell pellets were resuspended in formalin and incubated in the dark at room temperature for 30 min. Macrophages were then centrifuged for 5 min at 400 g, the supernatant was aspirated, and the macrophages were resuspended in 250 μL of PBS and kept at 4°C. The fixed macrophages were imaged using fluorescent microscopy within a week of the experiment. All fluorescent images from the phagocytosis experiments are available on Mendeley Data (doi: 10.17632/zrmgjyggmr.1). […]

## Amyloid-beta 42 labeled with HiLyte 488 [Aβ42]
[1]; 2 h treatment, in triplicate, every 4 h for 24 h starting at PS16, total cellular fluorescence
  oscillation of Aβ42 phagocytosis in knockout macrophages (in words): ablation of the zenith of fluorescence at PS32
[1]; ECHO v4.1 fit, average of 3 replicates, log10 mean cell fluorescence, 2 h uptake every 4 h from PS16, PER1-/-/PER2-/- KO BMDMs
  Oscillation Type: Damped
[2]
  aggregation kinetics compared with Aβ40 (in words): higher aggregation kinetics
[3]
  Oscillation Type: Forced
